From patent US20260165983A1, “VITAMIN A FORMULATION” (ADISSEO FRANCE S.A.S., priority 2020, published 2026)

Experiments:
[1] = Dynamic oxidation test by DSC (differential scanning calorimeter) under oxygen flow; assay type: physicochemical; conditions: oxygen flow 50 ml/min; vitamin A acetate with 20% by weight antioxidant; higher temperature = higher antioxidant power
Description: (§1) The antioxidant power measurement methods used in the examples for antioxidant and vitamin A (as vitamin A acetate) mixtures are shown below.
1) Dynamic Oxidation Test by DSC (Differential Scanning Calorimeter)
It is carried out under oxygen flow (50 ml/min) then the temperature is raised to a temperature above the melting point of vitamin A (i.e. above 60° C.).
The oxidation corresponds to an exothermic phenomenon which occurs at a given temperature. For BHT, it occurs at 153° C. The higher the oxidation temperature, the higher the antioxidant power.
All the samples having a temperature greater than or equal to 120° C. will be retained for a much longer Oxipres test.

[2] = Oxipres test (oxygen consumption under O2 pressure); assay type: physicochemical
Excerpt: as §1
This test consists of putting the samples under O2 pressure at a given temperature. The method allows determining the kinetics of oxygen consumption, expressed by a variation of O2 (ΔP in bars), this variation being all the smaller as the antioxidant power is high.

SMILES | DSC DYN Onset (oxidation temperature) [1] | Oxipres Time ([2]; under O2 pressure at a given temperature) | Oxipres ΔP (variation of O2) ([2]; under O2 pressure, smaller ΔP = higher antioxidant power)
CC(=O)OC/C=C(C)/C=C/C=C(C)/C=C/C1=C(C)CCCC1(C)C [Sample 1, vitamin A acetate] | 60 °C | 0 h | 5.0 Bars
Cc1cc(C(C)(C)C)c(O)c(C(C)(C)C)c1 [BHT, 2,6-di-tert-butyl-4-methyl-phenol, reference compound] | 153 °C |  | 
